# Measured values taken from paper PMC5218480 (PLoS ONE, 2017).
# System: MV-4-11 cells
# Experiment: Gene expression microarray analysis (Affymetrix PrimeView) and GSEA
# Type: cell-based, human
# Set-up: RFU PODN (11730768_x_at) / Fold change /veh PODN (11730768_x_at) / RFU LINC00158 (11744669_a_at) / Fold change /veh LINC00158 (11744669_a_at) / RFU DUSP10 (11751237_a_at) / Fold change /veh DUSP10 (11751237_a_at) / RFU ID3 (11757404_x_at) / Fold change /veh ID3 (11757404_x_at) / RFU PLEKHG5 (11737974_s_at) / Fold change /veh PLEKHG5 (11737974_s_at) / RFU LRRC4B (11730491_at) / Fold change /veh LRRC4B (11730491_at) / RFU GIMAP4 (11747438_a_at) / Fold change /veh GIMAP4 (11747438_a_at) / RFU KRT8 (11758183_x_at) / Fold change /veh KRT8 (11758183_x_at) / RFU CNN1 (11734310_a_at) / Fold change /veh CNN1 (11734310_a_at) / RFU VPS37D (11726825_at) / Fold change /veh VPS37D (11726825_at) / RFU C10orf10 (11716522_x_at) / Fold change /veh C10orf10 (11716522_x_at) / RFU KIR2DL2 /// KIR2DL4 /// KIR2DL5A /// KIR2DL5B /// KIR2DS1 /// KIR2DS2 /// KIR2DS3 /// KIR2DS4 /// KIR3DL3 /// KIR3DL3 /// KIR3DS1 (11738374_at) / Fold change /veh KIR2DL2 /// KIR2DL4 /// KIR2DL5A /// KIR2DL5B /// KIR2DS1 /// KIR2DS2 /// KIR2DS3 /// KIR2DS4 /// KIR3DL3 /// KIR3DL3 /// KIR3DS1 (11738374_at) / RFU C1QL1 (11718748_at) / Fold change /veh C1QL1 (11718748_at) / RFU TMPRSS4 (11747572_a_at) / Fold change /veh TMPRSS4 (11747572_a_at) / RFU HAMP (11756126_x_at) / Fold change /veh HAMP (11756126_x_at) / RFU RNFT2 (11725882_a_at) / Fold change /veh RNFT2 (11725882_a_at) / RFU NR4A2 (11747474_a_at) / Fold change /veh NR4A2 (11747474_a_at) / RFU ABCC12 (11746883_a_at) / Fold change /veh ABCC12 (11746883_a_at) / RFU TMEM136 (11760407_x_at) / Fold change /veh TMEM136 (11760407_x_at) / RFU CLDN22 /// WWC2 (11732394_at) / Fold change /veh CLDN22 /// WWC2 (11732394_at) / RFU HLA-DPB1 (11760878_x_at) / Fold change /veh HLA-DPB1 (11760878_x_at) / RFU SPINT1 (11716480_a_at) / Fold change /veh SPINT1 (11716480_a_at) / RFU GAP43 (11754022_s_at) / Fold change /veh GAP43 (11754022_s_at) / RFU A4GNT (11735810_at) / Fold change /veh A4GNT (11735810_at) / RFU PRB3 (11715151_x_at) / Fold change /veh PRB3 (11715151_x_at) / RFU TUBB4B (11761932_at) / Fold change /veh TUBB4B (11761932_at) / RFU CAPN14 (11732068_a_at) / Fold change /veh CAPN14 (11732068_a_at) / RFU TMCC2 (11721928_a_at) / Fold change /veh TMCC2 (11721928_a_at) / RFU IRGQ (11745062_a_at) / Fold change /veh IRGQ (11745062_a_at) / RFU FAM174B (11720279_a_at) / Fold change /veh FAM174B (11720279_a_at) / RFU TMPRSS4 (11748680_a_at) / Fold change /veh TMPRSS4 (11748680_a_at) / RFU FAM212B (11763350_a_at) / Fold change /veh FAM212B (11763350_a_at) / RFU PLEKHG5 (11743358_a_at) / Fold change /veh PLEKHG5 (11743358_a_at) / RFU ZSCAN30 (11745921_a_at) / Fold change /veh ZSCAN30 (11745921_a_at) / RFU CMKLR1 (11741424_a_at) / Fold change /veh CMKLR1 (11741424_a_at) / RFU LOC101060620 /// MAPK8IP1 (11723275_at) / Fold change /veh LOC101060620 /// MAPK8IP1 (11723275_at) / RFU SPTSSB (11747773_x_at) / Fold change /veh SPTSSB (11747773_x_at) / RFU PRSS12 (11739890_at) / Fold change /veh PRSS12 (11739890_at) / RFU BIN1 (11741810_x_at) / Fold change /veh BIN1 (11741810_x_at) / RFU WNT11 (11732464_a_at) / Fold change /veh WNT11 (11732464_a_at) / RFU C10orf10 (11716521_a_at) / Fold change /veh C10orf10 (11716521_a_at) / RFU C5orf56 (11738089_at) / Fold change /veh C5orf56 (11738089_at) / RFU CYB561 (11721691_x_at) / Fold change /veh CYB561 (11721691_x_at) / RFU ANKRD19P (11752326_a_at) / Fold change /veh ANKRD19P (11752326_a_at) / RFU OR2T12 /// OR2T33 /// OR2T8 (11738714_s_at) / Fold change /veh OR2T12 /// OR2T33 /// OR2T8 (11738714_s_at) / RFU VCAN (11748164_a_at) / Fold change /veh VCAN (11748164_a_at) / RFU JSRP1 (11732532_at) / Fold change /veh JSRP1 (11732532_at) / RFU KRTAP10-11 (11738290_x_at) / Fold change /veh KRTAP10-11 (11738290_x_at) / RFU MYO3A (11730013_a_at) / Fold change /veh MYO3A (11730013_a_at) / RFU EBF3 (11725865_a_at) / Fold change /veh EBF3 (11725865_a_at) / RFU CAMK2N1 (11719241_x_at) / Fold change /veh CAMK2N1 (11719241_x_at) / RFU C5orf56 (11738088_a_at) / Fold change /veh C5orf56 (11738088_a_at) / RFU OLFML3 (11715873_a_at) / Fold change /veh OLFML3 (11715873_a_at) / RFU LOC100653217 /// NTM (11731650_a_at) / Fold change /veh LOC100653217 /// NTM (11731650_a_at) / RFU MAPK11 (11762145_a_at) / Fold change /veh MAPK11 (11762145_a_at) / RFU FIZ1 (11724087_x_at) / Fold change /veh FIZ1 (11724087_x_at) / RFU OASL (11726364_x_at) / Fold change /veh OASL (11726364_x_at) / RFU SOX15 (11748057_x_at) / Fold change /veh SOX15 (11748057_x_at) / RFU CD79A (11719716_a_at) / Fold change /veh CD79A (11719716_a_at) / RFU HIST1H1D (11736915_at) / Fold change /veh HIST1H1D (11736915_at) / RFU CASKIN2 (11723855_a_at) / Fold change /veh CASKIN2 (11723855_a_at) / RFU LOC730098 (11760151_x_at) / Fold change /veh LOC730098 (11760151_x_at) / RFU OR4N2 (11742367_at) / Fold change /veh OR4N2 (11742367_at) / RFU PRRT2 (11749266_a_at) / Fold change /veh PRRT2 (11749266_a_at) / RFU SNX32 (11753110_a_at) / Fold change /veh SNX32 (11753110_a_at) / RFU CDHR5 (11726645_a_at) / Fold change /veh CDHR5 (11726645_a_at) / RFU RCAN1 (11760418_a_at) / Fold change /veh RCAN1 (11760418_a_at) / RFU FAM167A (11723789_a_at) / Fold change /veh FAM167A (11723789_a_at) / RFU FAM26E (11764081_at) / Fold change /veh FAM26E (11764081_at) / RFU ISYNA1 (11749810_s_at) / Fold change /veh ISYNA1 (11749810_s_at) / RFU ACY1 (11761880_at) / Fold change /veh ACY1 (11761880_at) / RFU 11764098_at / Fold change /veh 11764098_at / RFU SAMD14 (11745864_x_at) / Fold change /veh SAMD14 (11745864_x_at) / RFU NPB (11741838_a_at) / Fold change /veh NPB (11741838_a_at) / RFU TMPRSS6 (11731388_a_at) / Fold change /veh TMPRSS6 (11731388_a_at) / RFU KRTAP10-2 (11738614_at) / Fold change /veh KRTAP10-2 (11738614_at) / RFU ARHGAP8 /// PRR5-ARHGAP8 (11727945_x_at) / Fold change /veh ARHGAP8 /// PRR5-ARHGAP8 (11727945_x_at) / RFU KRTAP5-7 /// NADSYN1 (11734609_at) / Fold change /veh KRTAP5-7 /// NADSYN1 (11734609_at) / RFU RASL12 (11751679_a_at) / Fold change /veh RASL12 (11751679_a_at) / RFU CDKN2B (11736163_a_at) / Fold change /veh CDKN2B (11736163_a_at) / RFU PRF1 (11729649_at) / Fold change /veh PRF1 (11729649_at) / RFU, ZNF638 /// ZNF638-IT1 / Fold change vs veh, ZNF638 /// ZNF638-IT1 / RFU, PANK3 / Fold change vs veh, PANK3 / RFU, SH3YL1 / Fold change vs veh, SH3YL1 / RFU, ZEB2 / Fold change vs veh, ZEB2 / RFU, NRIP1 / Fold change vs veh, NRIP1 / RFU, PTTG1IP / Fold change vs veh, PTTG1IP / RFU, CAPN2 / Fold change vs veh, CAPN2 / RFU, MED14 / Fold change vs veh, MED14 / RFU, SNORA58 / Fold change vs veh, SNORA58 / RFU, C1orf63 / Fold change vs veh, C1orf63 / RFU, LRRFIP1 / Fold change vs veh, LRRFIP1 / RFU, NDUFAF7 / Fold change vs veh, NDUFAF7 / RFU, SLC12A2 / Fold change vs veh, SLC12A2 / RFU, IBTK / Fold change vs veh, IBTK / RFU, ESF1 / Fold change vs veh, ESF1 / Fold change vs veh, TMEM50B / RFU, TAOK1 / Fold change vs veh, TAOK1 / RFU, ACBD3 / Fold change vs veh, ACBD3 / RFU, TMA16 / Fold change vs veh, TMA16 / RFU, RWDD3 / Fold change vs veh, RWDD3 / RFU, BCAT1 / Fold change vs veh, BCAT1 / RFU, EDEM3 / Fold change vs veh, EDEM3 / RFU, TMEM33 / Fold change vs veh, TMEM33 / RFU, WDR75 / Fold change vs veh, WDR75 / RFU, AHCTF1 / Fold change vs veh, AHCTF1 / RFU, TFRC / Fold change vs veh, TFRC / RFU, ZDHHC17 / Fold change vs veh, ZDHHC17 / RFU, NOM1 / Fold change vs veh, NOM1 / RFU, ARL8B / Fold change vs veh, ARL8B / RFU, ZBTB11 / Fold change vs veh, ZBTB11 / RFU, TAMM41 / Fold change vs veh, TAMM41 / RFU, KIAA1704 /// LOC100996395 / Fold change vs veh, KIAA1704 /// LOC100996395 / RFU, ING1 / Fold change vs veh, ING1 / RFU, TRMT61B / Fold change vs veh, TRMT61B / RFU, FUBP3 / Fold change vs veh, FUBP3 / RFU, TP53 / Fold change vs veh, TP53 / RFU, TNKS2 / Fold change vs veh, TNKS2 / RFU, ZFP14 / Fold change vs veh, ZFP14 / RFU, ACTR2 / Fold change vs veh, ACTR2 / RFU, PPP3R1 / Fold change vs veh, PPP3R1 / RFU, PIK3R1 / Fold change vs veh, PIK3R1 / RFU, HNRNPA1 / Fold change vs veh, HNRNPA1 / RFU, RNF170 / Fold change vs veh, RNF170 / RFU, ZNF28 / Fold change vs veh, ZNF28 / RFU, RNGTT / Fold change vs veh, RNGTT / RFU, OGT / Fold change vs veh, OGT / RFU, BRD1 / Fold change vs veh, BRD1 / RFU, MARS / Fold change vs veh, MARS / RFU, ZNF655 / Fold change vs veh, ZNF655 / RFU, FAHD1 / Fold change vs veh, FAHD1 / RFU, BDP1 / Fold change vs veh, BDP1 / RFU, LRRCC1 / Fold change vs veh, LRRCC1 / RFU, ARID1A / Fold change vs veh, ARID1A / RFU, ZNF146 / Fold change vs veh, ZNF146 / RFU, ZNF330 / Fold change vs veh, ZNF330 / RFU, GPN3 / Fold change vs veh, GPN3 / RFU, C9orf123 / Fold change vs veh, C9orf123 / RFU, N4BP2L2 / Fold change vs veh, N4BP2L2 / RFU, ARFIP1 / Fold change vs veh, ARFIP1 / RFU, FAM179B / Fold change vs veh, FAM179B / RFU, BCL10 / Fold change vs veh, BCL10 / RFU, UHRF1BP1L / Fold change vs veh, UHRF1BP1L / RFU, BET1 / Fold change vs veh, BET1 / RFU, CNOT2 / Fold change vs veh, CNOT2 / RFU, ZNF268 / Fold change vs veh, ZNF268 / Fold change vs veh, ZNF507 / RFU, DGCR2 / Fold change vs veh, DGCR2 / RFU, WDSUB1 / Fold change vs veh, WDSUB1 / Fold change vs veh, HSP90B1 /// MIR3652 / RFU, ADSS / Fold change vs veh, ADSS / RFU, GK / Fold change vs veh, GK / RFU, ZNF148 / Fold change vs veh, ZNF148 / RFU, TAF9 / Fold change vs veh, TAF9 / RFU, SLC1A5 / Fold change vs veh, SLC1A5 / RFU, SLMO2 / Fold change vs veh, SLMO2 / RFU, ABCC4 / Fold change vs veh, ABCC4 / RFU, LOC101060439 /// RAP1B / Fold change vs veh, LOC101060439 /// RAP1B / RFU, RFX7 / Fold change vs veh, RFX7 / RFU, GTPBP10 / Fold change vs veh, GTPBP10 / RFU, CNEP1R1 / Fold change vs veh, CNEP1R1 / RFU, BIVM-ERCC5 /// ERCC5 / Fold change vs veh, BIVM-ERCC5 /// ERCC5 / RFU, ILF3 / Fold change vs veh, ILF3 / RFU 11762660_at / Fold change /veh 11762660_at / RFU VCAN (11757783_s_at) / Fold change /veh VCAN (11757783_s_at) / RFU DDX43 (11728927_at) / Fold change /veh DDX43 (11728927_at) / RFU KRT8 (11758188_x_at) / Fold change /veh KRT8 (11758188_x_at) / RFU NKD1 (11759106_at) / Fold change /veh NKD1 (11759106_at) / RFU SRD5A1 (11742802_a_at) / Fold change /veh SRD5A1 (11742802_a_at) / RFU TPSAB1 /// TPSB2 (11721975_s_at) / Fold change /veh TPSAB1 /// TPSB2 (11721975_s_at) / RFU GSTM3 (11746129_a_at) / Fold change /veh GSTM3 (11746129_a_at) / RFU IL23R (11737362_x_at) / Fold change /veh IL23R (11737362_x_at) / RFU TMEM51 (11727254_a_at) / Fold change /veh TMEM51 (11727254_a_at) / RFU PIWIL2 (11732686_x_at) / Fold change /veh PIWIL2 (11732686_x_at) / RFU ORM1 (11744905_x_at) / Fold change /veh ORM1 (11744905_x_at) / RFU CCDC152 (11743942_at) / Fold change /veh CCDC152 (11743942_at) / RFU ECM1 (11717891_a_at) / Fold change /veh ECM1 (11717891_a_at) / RFU IL23R (11748794_a_at) / Fold change /veh IL23R (11748794_a_at) / RFU TNFAIP8L3 (11732012_x_at) / Fold change /veh TNFAIP8L3 (11732012_x_at) / RFU MBOAT4 (11741988_at) / Fold change /veh MBOAT4 (11741988_at) / RFU 11764193_at / Fold change /veh 11764193_at / RFU TMEM53 (11763286_at) / Fold change /veh TMEM53 (11763286_at) / RFU MAGEB2 (11727129_at) / Fold change /veh MAGEB2 (11727129_at) / RFU TMEM200A (11744735_a_at) / Fold change /veh TMEM200A (11744735_a_at) / RFU CCDC152 (11751479_a_at) / Fold change /veh CCDC152 (11751479_a_at) / RFU FAM211A (11726209_a_at) / Fold change /veh FAM211A (11726209_a_at) / RFU RGS16 (11746705_a_at) / Fold change /veh RGS16 (11746705_a_at) / RFU VCAN (11755009_s_at) / Fold change /veh VCAN (11755009_s_at) / RFU RHOB (11743442_s_at) / Fold change /veh RHOB (11743442_s_at) / RFU RGS16 (11720943_a_at) / Fold change /veh RGS16 (11720943_a_at) / RFU RGS16 (11720944_at) / Fold change /veh RGS16 (11720944_at) / RFU, VPS4B / Fold change vs veh, VPS4B / RFU, CREB1 / Fold change vs veh, CREB1 / RFU, DNAJC13 / Fold change vs veh, DNAJC13 / RFU, GNAQ / Fold change vs veh, GNAQ / RFU, CDK5R1 / Fold change vs veh, CDK5R1 / RFU, ZRANB3 / Fold change vs veh, ZRANB3 / RFU, CUL4A / Fold change vs veh, CUL4A / RFU, CCNY / Fold change vs veh, CCNY / RFU, UFL1 / Fold change vs veh, UFL1 / RFU, COG3 / Fold change vs veh, COG3 / RFU, DIAPH2 / Fold change vs veh, DIAPH2 / RFU, SKA2 / Fold change vs veh, SKA2 / RFU, AFF3 / Fold change vs veh, AFF3 / RFU, LMF1 / Fold change vs veh, LMF1 / RFU, IPO11 / Fold change vs veh, IPO11 / RFU, DFFB / Fold change vs veh, DFFB / RFU, FOXP1 / Fold change vs veh, FOXP1 / RFU, CARD8 / Fold change vs veh, CARD8 / RFU, STRN3 / Fold change vs veh, STRN3 / RFU, ADK / Fold change vs veh, ADK / RFU, RASSF2 / Fold change vs veh, RASSF2 / RFU, WIPF1 / Fold change vs veh, WIPF1 / RFU, LARP1B / Fold change vs veh, LARP1B / RFU, RASA1 / Fold change vs veh, RASA1 / RFU, RB1 / Fold change vs veh, RB1 / RFU, PPFIA1 / Fold change vs veh, PPFIA1 / RFU, MAT2A / Fold change vs veh, MAT2A / RFU, CCT5 / Fold change vs veh, CCT5 / RFU, WDR92 / Fold change vs veh, WDR92 / RFU, CUX1 / Fold change vs veh, CUX1 / RFU, TTC7A / Fold change vs veh, TTC7A / RFU, TMEM135 / Fold change vs veh, TMEM135 / RFU, DEPTOR / Fold change vs veh, DEPTOR / RFU, CPM / Fold change vs veh, CPM / RFU, DNAJB6 / Fold change vs veh, DNAJB6 / RFU, CACNA2D3 / Fold change vs veh, CACNA2D3 / RFU, DTX4 / Fold change vs veh, DTX4 / RFU, TFCP2 / Fold change vs veh, TFCP2 / RFU, GMCL1 /// GMCL1P1 / Fold change vs veh, GMCL1 /// GMCL1P1 / RFU, AEBP2 / Fold change vs veh, AEBP2 / RFU, SNHG1 /// SNORD22 /// SNORD25 /// SNORD26 /// SNORD27 /// SNORD28 /// SNORD29 /// SNORD31 / Fold change vs veh, SNHG1 /// SNORD22 /// SNORD25 /// SNORD26 /// SNORD27 /// SNORD28 /// SNORD29 /// SNORD31 / Fold change (Aza/veh), C12orf56 (ProbeSet 11735607_a_at) / Fold change (ACY-1035/veh), C12orf56 (ProbeSet 11735607_a_at) / Fold change (Aza/veh), FGFR1OP (ProbeSet 11751329_s_at) / Fold change (ACY-1035/veh), FGFR1OP (ProbeSet 11751329_s_at) / Fold change (Aza/veh), VPS36 (ProbeSet 11739960_a_at) / Fold change (ACY-1035/veh), VPS36 (ProbeSet 11739960_a_at) / RFU SYPL1 (11715823_x_at) / Fold change /veh SYPL1 (11715823_x_at) / RFU IGFBP7 (11715501_s_at) / Fold change /veh IGFBP7 (11715501_s_at) / RFU REEP3 (11722064_at) / Fold change /veh REEP3 (11722064_at) / RFU IGLL1 (11728026_x_at) / Fold change /veh IGLL1 (11728026_x_at): dose or concentration left out as unconfirmed
# Conditions: MV-4-11 cells, 48 hours
structure (smiles),measurement,value
Nc1ccc(-c2cccs2)cc1NC(=O)c1ccc2c(c1)cc(C1CC1)n2CCN1CCOCC1 [ACY-1035],RFU IL23R (11748794_a_at),5.77 RFU
